Results on 4 compounds are retold here after patent publication US20200017549A1, “NOVEL a4B7 PEPTIDE ANTAGONISTS” (Protagonist Therapeutics, Inc., priority 2013, published 2020).

The nature of this series: Simulated Intestinal Fluid (SIF) Stability Assay. The series is classed as in vitro ADME. The note with it: for stability in simulated intestinal fluids (SIF): Cys substituted with Pen, compared to SEQ ID NO: 46 with Cys. The procedure: Simulated Intestinal Fluid (SIF) Stability Assay
Studies were carried out in simulated intestinal fluid (SIF) to evaluate gastric stability of the peptide molecules of the instant invention. SIF was prepared by adding 6.8 g of monobasic potassium phosphate and 10.0 g of pancreatin to 1.0 L of water. After dissolution, the pH was adjusted to 6.8 using NaOH. DMSO stocks (2 mM) were first prepared for the test compounds. Aliquots of the DMSO solutions were dosed into 6 individual tubes, each containing 0.5 mL of SIF, which had been pre-warmed to 37° C.
The final test compound concentration was 20 μM. The vials were kept in a benchtop Thermomixer® for the duration of the experiment. At each time point (0, 5, 10, 20, 40, and 60 minutes), 1.0 mL of acetonitrile containing 1% formic acid was added to one vial to terminate the reaction. Samples were stored at 4° C. until the end of the experiment. After the final timepoint was sampled, the tubes were mixed and then centrifuged at 3,000 rpm for 10 minutes. Aliquots of the supernatant were removed, diluted 1:1 into distilled water containing internal standard, and analyzed by LCMS/MS. Percent remaining at each time point was calculated based on the peak area response ratio of test to compound to internal standard. Time 0 was set to 100%, and all later time points were calculated relative to time 0. Half-lives were calculated by fitting to a first-order exponential decay equation using GraphPad. A small sampling of the results of these studies is provided and discussed in connection FIG. 3, above.

Bridge positions count the residues as written; N and C are the ends. Square brackets hold non-standard residues; d marks the D form. Peptide text beside a SMILES is read from it. NMeR = CN[C@@H](CCCNC(=N)N)C(=O)O; Pen = CC(C)(S)[C@H](N)C(=O)O

In the case of `CC(=O)N[C@H]1CSSC[C@@H](C(N)=O)NC(=O)[C@H](CC(C)C)NC(=O)[C@H]([C@@H](C)O)NC(=O)[C@H](CC(=O)O)NC(=O)[C@H](CO)NC(=O)[C@H](CCCNC(=N)N)N(C)C1=O` [SEQ ID NO: 46] (Ac-C[NMeR]SDTLC-NH2; disulfide 1-7), the “half-life in SIF” value (simulated intestinal fluid, pH 6.8, 37° C., N-Me-Arg substituted versus non-methylated variation) is on record as “increased half-life substantially”.
As to `CC(=O)N[C@@H]1C(=O)N(C)[C@@H](CCCNC(=N)N)C(=O)N[C@@H](CO)C(=O)N[C@@H](CC(=O)O)C(=O)N[C@@H]([C@@H](C)O)C(=O)N[C@@H](CC(C)C)C(=O)N[C@H](C(=O)N[C@H](CCCCN)C(N)=O)C(C)(C)SSC1(C)C` [SEQ ID NO: 93] (Ac-[Pen][NMeR]SDTL[Pen][dK]-NH2; disulfide 1-7), the “stability in simulated intestinal fluids (SIF)” value was “increased stability significantly”.
Still for that read-out and setting: in the case of `CC(=O)N[C@H]1CSSC(C)(C)[C@@H](C(=O)N[C@H](CCCCN)C(N)=O)NC(=O)[C@H](CC(C)C)NC(=O)[C@H]([C@@H](C)O)NC(=O)[C@H](CC(=O)O)NC(=O)[C@H](CO)NC(=O)[C@H](CCCNC(=N)N)N(C)C1=O` [SEQ ID NO: 55] (Ac-C[NMeR]SDTL[Pen][dK]-NH2; disulfide 1-7) it was “increased stability significantly”.
On to `CC(=O)N[C@H]1CSSC(C)(C)[C@@H](C(=O)N[C@@H](CCC(=O)O)C(=O)N[C@H](CCCCN)C(N)=O)NC(=O)[C@H](CC(C)C)NC(=O)[C@H]([C@@H](C)O)NC(=O)[C@H](CC(=O)O)NC(=O)[C@H](CO)NC(=O)[C@H](CCCNC(=N)N)N(C)C1=O` [SEQ ID NO: 74] (Ac-C[NMeR]SDTL[Pen]E[dK]-NH2; disulfide 1-7), for which the “stability in simulated intestinal fluids (SIF)” value is “increased stability significantly”.
